Experiment [1] deals with human pulmonary artery smooth muscle cells (PASMC). In words: ET-1 induced loss of mitochondrial membrane potential (JC-1 fluorescence). The format is cell-based. The protocol: Human pulmonary Artery Smooth Muscle cells (PASMC) were grown to confluence on 10×22 mm glass cover slips in Clonetics smooth muscle basal media supplemented with growth hormones and fetal bovine serum. The cells on glass cover slips were then placed in 3 ml Hank's Balanced Salt Solution (HBSS) supplemented with […] of the mitochondrial dye JC-1 and incubated at 37° C. for 30 minute. The cells on the cover slips were then washed with 3 ml HBSS and mounted in a cuvette in a spectrofluorimeter with 3 ml HBSS. The emission spectra with excitation at 490 nm were taken over the range of 520 nm to 620 nm (150 sec). […] (0.1% acetone) FCCP, which leads complete depolarization of the mitochondrial membrane potential, was added at the end of each experiment. The spectra were normalized by dividing them by the fluorescence at 570 nm. The value obtained after FCCP treatment was assigned a value of 0 mV and the individual FCCP ratio was subtracted from each ratio point. The control (JC-1) fluorescence ratio was then assigned a value of +224 mV and the membrane potential [DmH(mV)] for each experimental point were calculated accordingly.
The cells were treated with 0.1% DMSO (vehicle for Compound 1), 1 nM Endothelin-1 (ET-1) or 1 nM ET-1 and 100 nM Compound 1 and scans were taken after 10, 30 and 60 minutes of the incubation. FCCP was added at the end and incubated for 60 minutes before taking scan. N=5 cover slips for all conditions.
The cells were treated with 0.1% DMSO or 1 nm Endothelin-1 (ET-1) and scans were taken after 30 minutes of incubation. The medium was then removed by washing the cells with fresh HBSS and scans were taken after 30 minutes. FCCP was added to the dish at the end and incubated for 60 minutes before taking scan. N=5 cover slips. In other set of 5 cover slips 1 nM Endothelin-1 (ET-1) and 100 nM Compound 1 were added and scans were taken after 30 minutes of incubation. The medium was then removed by washing the cells with fresh HBSS and 100 nM Compound 1 was added on top of it. Scans were taken after 30 minutes. FCCP was added at the end and incubated for 60 minutes before taking scan. N=3 cover slips.
The cells were treated with 1 nM Endothelin-1 (ET-1) and scans were taken after 30 minutes of incubation. The medium was then removed by washing the cells with fresh HBSS and HBSS supplemented with 100 nM Compound 1 was added to the cells. Scans were taken after 30 minutes. FCCP was added at the end and incubated for 60 minutes before taking scan. N=5 cover slips for all conditions.

For experiment [2], the system named is Human lung alveolar type II cells (A549). The experiment is described as follows: Cytochrome c translocation into the cytosol induced by cigarette smoke extract (cytochrome c ELISA). The conditions noted are these: 100 nM Compound A with 1%, 2.5% or 5% CSE, 24 hrs. The format is cell-based. The protocol: Smoke from 8 cigarettes were bubbled slowly through 100 ml of serum free culture medium and the resulting suspension was filtered through 0.20 μm filter. The solution was considered as 100% cigarette smoke extract (CSE). Human lung alveolar type II cells (A549) were seeded 1.5×10^5 cells per well in a 96 well plate and incubated for 48 hrs. The cells were then treated separately with either 100 nM Compound A (13,14-dihydro-15-keto-16,16-difluoro-18(S)-methyl-PGE1) or 1%, 2.5% and 5% CSE. In other sets, 100 nM Compound A was added along with 1%, 2.5% or 5% CSE. All incubations were done at 37° C. for 24 hrs. After 24 hr treatment, the cells were washed with 0-4° C. PBS three times. Measurement of cytochrome c that was translocated into the cytosol, a marker of cellular injury, was performed with a cytochrome c ELISA assay kit according to the instructions provided with the kit.

No end group written: not given here.

Regarding `CCCCC(F)(F)C(=O)CCC1CCC(=O)C1CCCCCCC(=O)O` (stereo not shown) [Compound 1, 11-deoxy-13,14-dihydro-15-keto-16,16-difluoro-PGE1], the “protection against ET-1 induced loss of membrane potential (in words)” value in experiment [1] (100 nM Compound 1 with 1 nM ET-1, 10, 30 and 60 min) is listed as “protects against ET-1 induced loss of membrane potential at all times tested”. The mitochondrial membrane potential in experiment [1] (Example 1-2, 1 nM ET-1 along with 100 nM Compound 1, 30 min) was 137.1±4.7 mV; in experiment [1] (Example 1-2, after removal of ET-1 with continued 100 nM Compound 1, further 30 min), 115.3±2.3 mV; in experiment [1] (PASMC, 1 nM ET-1 and 100 nM Compound 1, 10 min, control taken as 224 mV), 114.2±2.6 mV; in experiment [1] (PASMC, 1 nM ET-1 and 100 nM Compound 1, 30 min, control taken as 224 mV), 104.02±5.0 mV; in experiment [1] (PASMC, 1 nM ET-1 and 100 nM Compound 1, 60 min, control taken as 224 mV), 73.1±2.4 mV. The “mitochondrial membrane potential (rescue)” value in experiment [1] (Example 1-3, ET-1 30 min, then ET-1 removed and 100 nM Compound 1 added, 30 min) came to 77.2±2.7 mV.
“Endothelin-1 (CSCSSLMDKECVYFCHLDIIW; ends and bridges not checked; cysteine pairing not given here; UniProt P05305 53-73, looked up) [ET-1, reference compound]”: the mitochondrial membrane potential worked out at 49.3±2.2 mV in experiment [1] (Example 1-2, ET-1 30 min, then ET-1 removed, scan after 30 min); 50.3±5.6 mV in experiment [1] (Examples 1-2 and 1-3, ET-1 alone, 30 min); 54.5±4.3 mV in experiment [1] (PASMC, 1 nM ET-1 alone, 10 min, control taken as 224 mV); 28.0±2.8 mV in experiment [1] (PASMC, 1 nM ET-1 alone, 30 min (Example 1-1), control taken as 224 mV); 13.1±1.0 mV in experiment [1] (PASMC, 1 nM ET-1 alone, 60 min, control taken as 224 mV).
With `CC[C@H](C)CC(F)(F)C(=O)CC[C@H]1[C@H](O)CC(=O)[C@@H]1CCCCCCC(=O)O` [Compound A, 13,14-dihydro-15-keto-16,16-difluoro-18(S)-methyl-PGE1], the “cytochrome c translocation by CSE (in words)” value in experiment [2] is given as “protected against cytochrome c translocation by CSE”.

Source of the values: patent US20080207759A1, “METHOD FOR PROTECTING MITOCHONDRIA” (SUCAMPO AG, priority 2007, published 2008).
